Reference: patent US10487087B2, “Positive allosteric modulators of the GLP-1 receptor” (Vanderbilt University, priority 2015, dated 2019)

Assays:
Assay type in all cases: cell-based
human GLP-1R [1] = molecular target: T1, human GLP-1R (Homo sapiens (Human), UniProt P43220); test: GLP-1 assay with GLP1 endogenous agonist (calcium mobilization, EC20 GLP-1 peptide 7-36 amide); conditions: calcium flux; for Emax at 30 µM: 30 μM compound, EC20 of GLP-1 7-36 amide; for EC50: potentiation of EC20 GLP-1 7-36 amide
Excerpt: A. GLP-1 Assay with GLP1 Endogenous Agonist
(§1) To assess the effects of test compounds on GLP-1 or glucagon potency and efficacy, a high-throughput calcium mobilization assay was used essentially as previously described (Morris L C, Days E L, Turney M, Mi D, Lindsley C W, Weaver C D, Niswender K D, A Duplexed High-Throughput Screen to Identify Allosteric Modulators of the Glucagon-Like Peptide 1 and Glucagon Receptors. J. Biomol. Screen. 2014 Feb. 13, 19(6):847-858). Briefly, human GLP-1R or Glucagon Receptor 9-3-H cells over-expressing a promiscuous G-protein (Millipore, Billerica, Mass.) were plated at 15,000 cells/well in black-walled 384-well plates (Greiner Bio-one, Monroe, N.C.) in Dulbecco's Modified Eagles Medium (DMEM) with 10% FCS, 4.0 mM L-glutamine, non-essential amino acids (NEAAs), and 10.0 mM HEPES without antibiotics. After overnight attachment, cells were washed twice with assay buffer (HBSS supplemented with 20 mM HEPES and 1.0 mM probenecid) using an ELx405CW cell washer (Bio-Tek, Winooski, Vt.) and then loaded with the calcium sensitive dye fluo-4 AM (Invitrogen, Grand Island, N.Y.) at a final concentration of 2.0 μM in assay buffer. After a 45-minute incubation at room temperature, the dye was removed by washing, leaving 20 μL of assay buffer. Next, the cell plate was introduced alongside a 384-well compound plate containing 0.1% final DMSO control wells and 11-point concentration response curves of putative GLP-1 PAMs created using a non-pipet based liquid transfer instrument, ECH0555 (Labcyte, Sunnyvale, Calif.). After a 20 μL compound addition to the appropriate wells, kinetic fluorescent measurements were collected for 2 minutes using an FDSS6000 (Hamamatsu, Bridgewater, N.J.) with 488 nm excitation and 480/540 emission filters. After 2 minutes, 10 μL of an EC20 concentration of GLP-1 peptide 7-36 amide (Phoenix Pharmaceuticals, Burlingame, Calif.), Glucagon (Phoenix Pharmaceuticals, Burlingame, Calif.) Exendin-4 (Tocris Bioscience, Bristol, UK), or Liraglutide (Victoza™, Novo-Nordisk, Denmark) was added and fluorescence was monitored for an additional 2 minutes to observe potentiation of the calcium flux signal. […] Recombinant peptides were reconstituted into assay buffer supplemented with 0.1% fatty acid free BSA (Sigma #A6003) and diluted into borosilicate glass tubes to maximize peptide recovery (Goebel-Stengel M, Stengel A, Tache Y, Reeve J R Jr., The importance of using the optimal plasticware and glassware in studies involving peptides. Anal. Biochem. 2011 Jul. 1, 414(1):38-46).
(§2) Data is from a single experiment unless otherwise noted. Data that is an average of two experiments is noted as “n=2” while data that is an average of three or more experiments is presented as the average plus or minus the standard error of the mean.

human GLP-1R [2] = molecular target: T1, human GLP-1R; test: GLP-1 assay with EX-4 synthetic agonist (calcium mobilization, EC20 EX-4); conditions: calcium flux; for Emax at 30 µM: 30 μM compound, EC20 of EX-4; for EC50: potentiation of EC20 EX-4, read-out: GLP1 EC50 (Ex-4 synthetic agonist)
Excerpt: B. GLP-1 Assay with EX-4 Synthetic Agonist
as §1, with “L-glutamine, 1×” for “L-glutamine,”, “EL×405CW” for “ELx405CW”, “EX-4” for “GLP-1 peptide 7-36 amide”, “Taché” for “Tache”
as §2

human GLP-1R [3] = molecular target: T1, human GLP-1R; test: GLP-1 concentration response curves in the presence of fixed concentrations of PAM (GLP-1 induced calcium flux); conditions: 0 μM, 3 μM, 10 μM, 30 μM of compound; FIGS. 2A and 2B
Excerpt: FIGS. 2A and 2B show a series of GLP-1 concentration response curves in the presence of fixed concentrations of an exemplary positive allosteric modulator (Compound 1).

T1 sequence (P43220 24-463): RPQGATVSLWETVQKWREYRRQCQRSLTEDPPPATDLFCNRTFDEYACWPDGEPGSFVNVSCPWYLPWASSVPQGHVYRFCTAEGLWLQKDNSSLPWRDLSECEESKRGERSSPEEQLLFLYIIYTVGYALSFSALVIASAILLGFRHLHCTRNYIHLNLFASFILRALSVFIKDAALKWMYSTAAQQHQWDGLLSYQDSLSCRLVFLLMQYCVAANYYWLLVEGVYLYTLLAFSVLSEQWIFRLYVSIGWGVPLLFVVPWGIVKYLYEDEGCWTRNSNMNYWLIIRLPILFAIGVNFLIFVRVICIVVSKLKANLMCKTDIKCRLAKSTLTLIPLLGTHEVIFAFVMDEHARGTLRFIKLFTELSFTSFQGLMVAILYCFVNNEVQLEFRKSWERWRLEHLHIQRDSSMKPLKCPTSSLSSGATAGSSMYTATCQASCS

SMILES	Emax at 30 µM (human GLP-1R [1])	EC50 (human GLP-1R [1])	Emax at 30 µM (human GLP-1R [2])	EC50 (human GLP-1R [2])	shift of GLP-1 concentration response curves / GLP-1 EC50 (human GLP-1R [3])
Cc1c2n(c3ccccc13)C(C(=O)NC[C@@H]1CCCN1C(C)C)CN(C1CCCC1)C2=O (stereo partly drawn) [Compound 3, 2-cyclopentyl-N-(((S)-1-isopropylpyrrolidin-2-yl)methyl)-10-methyl-1-oxo-1,2,3,4-tetrahydropyrazino[1,2-a]indole-4-carboxamide]	50%	5.7 µM	55%	11 µM	
CC(C)N1CCC[C@@H]1CNC(=O)c1cn(C2CCCC2)c(=O)c2c(Cl)c3ccccc3n12 [Compound 11, (R)-10-chloro-2-cyclopentyl-N-((1-isopropylpyrrolidin-2-yl)methyl)-1-oxo-1,2-dihydropyrazino[1,2-a]indole-4-carboxamide]	44%	> 30 µM		> 30 µM	
CC(C)N1CCC[C@H]1CNC(=O)c1cn(C2CCCC2)c(=O)c2c(Br)c3ccccc3n12 [Compound 12, (S)-10-bromo-2-cyclopentyl-N-((1-isopropylpyrrolidin-2-yl)methyl)-1-oxo-1,2-dihydropyrazino[1,2-a]indole-4-carboxamide]	53%	2.2 µM	59%	3.6 µM	
Cc1c2ccccc2n2c(C(=O)NC[C@@H]3CCCN3C(C)C)cn(C3CCCC3)c(=O)c12 [Compound 1, (S)-2-Cyclopentyl-N-((1-isopropylpyrrolidin-2-yl)methyl)-10-methyl-1-oxo-1,2-dihydropyrazino[1,2-a]indole-4-carboxamide]	57%	2.7 µM	59%	4.6 µM	leftward shift in the GLP-1 concentration response curves
Cc1c2cc(F)ccc2n2c(C(=O)NC[C@H]3CCCN3C(C)C)cn(C3CCCC3)c(=O)c12 [Compound 7, (R)-2-cyclopentyl-8-fluoro-N-((1-isopropylpyrrolidin-2-yl)methyl)-10-methyl-1-oxo-1,2-dihydropyrazino[1,2-a]indole-4-carboxamide]		> 30 µM		> 30 µM	
Cc1c2n(c3ccccc13)[C@@H](C(=O)NC[C@@H]1CCCN1C(C)C)CN(C1CCCC1)C2=O [Compound 8, (R)-2-cyclopentyl-N-(((S)-1-isopropylpyrrolidin-2-yl)methyl)-10-methyl-1-oxo-1,2,3,4-tetrahydropyrazino[1,2-a]indole-4-carboxamide]	56%	3.6 µM	56%	3.6 µM	
CC(C)N1CCC[C@@H]1CNC(=O)c1cn(C2CCCC2)c(=O)c2c(Br)c3ccccc3n12 [Compound 13, (R)-10-bromo-2-cyclopentyl-N-((1-isopropylpyrrolidin-2-yl)methyl)-1-oxo-1,2-dihydropyrazino[1,2-a]indole-4-carboxamide]	39%	> 30 µM		> 30 µM	
Cc1c2ccccc2n2c(C(=O)NC[C@H]3CCCN3C(C)C)cn([C@H]3CCOC3)c(=O)c12 [Compound 5, N-(((R)-1-isopropylpyrrolidin-2-yl)methyl)-10-methyl-1-oxo-2-((S)-tetrahydrofuran-3-yl)-1,2-dihydropyrazino[1,2-a]indole-4-carboxamide]	56%	4.2 µM	55%	5.9 µM	
Cc1c2n(c3ccccc13)[C@H](C(=O)NC[C@@H]1CCCN1C(C)C)CN(C1CCCC1)C2=O [Compound 9, (S)-2-cyclopentyl-N-(((S)-1-isopropylpyrrolidin-2-yl)methyl)-10-methyl-1-oxo-1,2,3,4-tetrahydropyrazino[1,2-a]indole-4-carboxamide]	40%	> 30 µM	33%	> 30 µM	
Cc1c2ccccc2n2c(C(=O)NC[C@@H]3CCCN3C(C)C)cn([C@H]3CCOC3)c(=O)c12 [Compound 4, N-(((S)-1-isopropylpyrrolidin-2-yl)methyl)-10-methyl-1-oxo-2-((S)-tetrahydrofuran-3-yl)-1,2-dihydropyrazino[1,2-a]indole-4-carboxamide]	52%	2.4 µM	50%	2.9 µM	
CC(C)N1CCC[C@H]1CNC(=O)c1cn(C2CCCC2)c(=O)c2c(Cl)c3ccccc3n12 [Compound 10, (S)-10-chloro-2-cyclopentyl-N-((1-isopropylpyrrolidin-2-yl)methyl)-1-oxo-1,2-dihydropyrazino[1,2-a]indole-4-carboxamide]	61%	1.3 µM	57%	1.5 µM	
Cc1c2cc(F)ccc2n2c(C(=O)NC[C@@H]3CCCN3C(C)C)cn(C3CCCC3)c(=O)c12 [Compound 6, (S)-2-cyclopentyl-8-fluoro-N-((1-isopropylpyrrolidin-2-yl)methyl)-10-methyl-1-oxo-1,2-dihydropyrazino[1,2-a]indole-4-carboxamide]	60%	4.4 µM	54%	6.1 µM	
